Data published in patent publication US9371265B2, “Compositions and methods related to inhibitors of JAK kinase” (EP PHARMA, INC., priority 2012, dated 2016).

How the values were obtained:
[1] = biological target: ULK2 (Homo sapiens, UniProt Q8IYT8); test: Kinase panel: ULK2; format: biochemical; conditions: 10 μM EP009
Method: (§1) Achieving JAK3 selectivity remains a significant challenge in the development of new small molecules for the treatment of cancer and immune-derived diseases. As such, the inventors employed cell-based screening assays of small-molecule libraries based upon the chemical scaffold of the established JAK3 inhibitor NC1153 (Stepkowski et al., J Immunol. (2005), 175(7):4236-4246) EP009 (FIG. 2A) was selected as a lead compound due to improved intrinsic stability (>95% purity in various solvents at 37° C. for 24 hours; FIG. 3) and high-degree of JAK3 selectivity. To test JAK3 versus JAK2 specificity of EP009, the IL-2/JAK3-dependent Kit225, and IL-3/JAK2-dependent BaF/3 cell lines were used. Kit225 and BaF/3 cells growing in the presence of IL-2 or IL-3, respectively, were treated with ascending concentrations of EP009 for 12 hours and cellular JAK3 and JAK2 tyrosine phosphorylation levels detected by Western blot analysis (FIGS. 2B and 2C). Following densitometric analysis, EP009 was determined to dose-dependently reduce IL-2-mediated JAK3 tyrosine phosphorylation with a cellular 50% inhibitory concentration (IC50) between 10 and 20 μM (FIG. 2B). […] To globally evaluate specificity, the inhibitory activity of EP009 was measured against a panel of protein kinases distributed throughout the kinome using the scanEDGE profiling service (KINOMEscan). […]

[2] = Stability analysis in solvents using NMR and HPLC; format: physicochemical
Method: FIG. 3. EP009 is structurally stable under varying solvent and temperature conditions. EP009 was dissolved in DMSO, DMSO:H20 (3:2 ratio), or methanol, and incubated at 25° C. or 37° C. for 24 hours.
FIG. 11 illustrates the dose-dependent effect of (FIG. 11A) freshly prepared EP-009(P) and (FIG. 11B) EP-009(P) stored in aqueous conditions for 48 hr at room temperature on IL-2/JAK3-dependent Kit225 cell viability. FIG. 12 illustrates LC-MS/MS detection of EP-009 (5 ng/ml) in mouse plasma at a retention time of 1.91 min.

[3] = biological target: EGFR(L858R) (Homo sapiens, UniProt P00533, L858R); test: Kinase panel: EGFR(L858R); format: biochemical; conditions: 10 μM EP009
Method: as §1

[4] = biological target: DCAMKL1 (Homo sapiens, UniProt O15075); test: Kinase panel: DCAMKL1; format: biochemical; conditions: 10 μM EP009
Method: as §1

[5] = biological target: ERK1 (Homo sapiens, UniProt P27361); test: Kinase panel: ERK1; format: biochemical; conditions: 10 μM EP009
Method: as §1

ULK2, sequence (Q8IYT8 whole entry): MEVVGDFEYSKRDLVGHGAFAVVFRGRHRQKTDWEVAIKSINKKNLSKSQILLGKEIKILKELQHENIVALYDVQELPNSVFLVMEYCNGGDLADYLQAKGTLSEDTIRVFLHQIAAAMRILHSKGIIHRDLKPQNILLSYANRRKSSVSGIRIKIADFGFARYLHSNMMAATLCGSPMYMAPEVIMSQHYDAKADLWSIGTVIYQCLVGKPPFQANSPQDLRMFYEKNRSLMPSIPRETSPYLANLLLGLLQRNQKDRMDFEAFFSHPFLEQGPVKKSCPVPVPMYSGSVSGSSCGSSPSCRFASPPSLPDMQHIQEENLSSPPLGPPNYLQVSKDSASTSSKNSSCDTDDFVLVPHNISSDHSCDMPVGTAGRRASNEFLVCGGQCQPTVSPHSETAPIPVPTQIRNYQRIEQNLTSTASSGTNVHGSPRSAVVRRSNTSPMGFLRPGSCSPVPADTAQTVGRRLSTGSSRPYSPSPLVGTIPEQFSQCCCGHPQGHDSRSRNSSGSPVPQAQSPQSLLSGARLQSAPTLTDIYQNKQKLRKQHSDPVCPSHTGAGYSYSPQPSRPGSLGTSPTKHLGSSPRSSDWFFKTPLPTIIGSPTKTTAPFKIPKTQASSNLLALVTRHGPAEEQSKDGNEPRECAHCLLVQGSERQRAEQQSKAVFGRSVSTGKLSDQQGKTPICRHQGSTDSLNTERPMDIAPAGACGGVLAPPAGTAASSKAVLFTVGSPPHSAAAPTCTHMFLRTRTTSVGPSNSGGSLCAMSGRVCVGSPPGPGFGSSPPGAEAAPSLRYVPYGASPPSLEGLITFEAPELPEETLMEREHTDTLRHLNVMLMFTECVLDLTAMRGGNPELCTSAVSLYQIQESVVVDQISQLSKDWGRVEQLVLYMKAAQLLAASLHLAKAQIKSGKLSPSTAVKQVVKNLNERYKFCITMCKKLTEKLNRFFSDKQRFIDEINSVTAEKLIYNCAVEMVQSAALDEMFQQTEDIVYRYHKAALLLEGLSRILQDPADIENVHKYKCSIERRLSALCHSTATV
ERK1, sequence (P27361 whole entry): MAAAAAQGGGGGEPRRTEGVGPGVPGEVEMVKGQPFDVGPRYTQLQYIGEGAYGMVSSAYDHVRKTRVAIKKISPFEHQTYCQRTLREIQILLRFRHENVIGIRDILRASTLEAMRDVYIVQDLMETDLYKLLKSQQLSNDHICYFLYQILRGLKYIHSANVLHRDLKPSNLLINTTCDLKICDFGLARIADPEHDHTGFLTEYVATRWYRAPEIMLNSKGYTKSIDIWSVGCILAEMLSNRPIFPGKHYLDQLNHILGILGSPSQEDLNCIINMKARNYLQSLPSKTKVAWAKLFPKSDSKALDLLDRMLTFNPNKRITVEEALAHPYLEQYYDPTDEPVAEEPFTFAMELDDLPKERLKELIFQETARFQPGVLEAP
DCAMKL1, sequence (O15075 whole entry): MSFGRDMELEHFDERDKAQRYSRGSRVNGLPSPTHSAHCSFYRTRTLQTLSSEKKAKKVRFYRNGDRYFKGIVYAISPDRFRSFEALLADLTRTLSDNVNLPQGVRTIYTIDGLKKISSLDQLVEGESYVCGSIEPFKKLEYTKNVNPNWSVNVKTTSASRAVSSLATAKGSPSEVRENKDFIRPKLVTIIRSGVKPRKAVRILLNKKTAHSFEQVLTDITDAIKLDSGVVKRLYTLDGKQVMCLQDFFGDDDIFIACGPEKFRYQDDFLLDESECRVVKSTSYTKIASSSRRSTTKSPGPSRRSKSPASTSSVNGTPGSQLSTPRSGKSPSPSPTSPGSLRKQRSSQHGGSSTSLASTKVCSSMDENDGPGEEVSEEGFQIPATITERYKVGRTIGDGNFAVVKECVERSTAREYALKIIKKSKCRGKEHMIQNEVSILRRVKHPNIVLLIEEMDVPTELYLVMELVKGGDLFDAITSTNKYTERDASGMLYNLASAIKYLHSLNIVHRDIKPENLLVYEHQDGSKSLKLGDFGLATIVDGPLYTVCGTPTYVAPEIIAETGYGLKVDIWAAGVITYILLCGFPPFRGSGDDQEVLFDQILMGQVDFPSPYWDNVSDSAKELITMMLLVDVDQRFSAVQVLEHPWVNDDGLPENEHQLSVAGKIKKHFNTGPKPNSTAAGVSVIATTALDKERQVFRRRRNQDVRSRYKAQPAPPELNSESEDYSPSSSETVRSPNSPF

SMILES: C=C1CCCCCCCCCC(CO)C1=O (stereo not drawn) [EP009, 2-(Hydroxymethyl)-12-methylenecyclododecanone]
- Kinase Activity (% of Control) [1]: 58 % of Control
- stability under various solubility conditions ([2]; 24 hr at 25° C. and 37° C.): stabile
- intrinsic stability (purity) ([2]; various solvents at 37° C. for 24 hours): > 95%
- Kinase Activity (% of Control) [3]: 100 % of Control
- Kinase Activity (% of Control) [4]: 100 % of Control
- Kinase Activity (% of Control) [5]: 100 % of Control
